# Laboratory results reported in US8034791B2, “Activation of Egr-1 promoter by DNA damaging chemotherapeutics” (The University of Chicago, priority 2001, dated 2011).
# Like-named read-outs stand apart in the source and are kept apart here.
# How the values were obtained:
# PC-3 cells [1] = assay: Preliminary in vitro TNF-α induction, PC-3 cells; format: cell-based, human; details: vector treated PC-3 cells (100 MOI), 24 hrs; cisplatin 250 μM, doxorubicin 3 μM, 5-FU 20 mM, paclitaxel 14 μM
# Method: (§1) In vitro measurement of TNF-α protein. PC-3 and PROb cells were plated in 96-well plates, grown overnight, and infected with Ad.Egr.TNF at 100 multiplicities of infection, incubated for three hrs, and were then treated with cisplatin (250 μM), doxorubicin (3 μM), 5-FU (20 mM) or paclitaxel (14 μM). Supernatants were harvested 24 hrs later and human TNF-α production was quantified by ELISA. Experiments were performed in quintuplicate.
# PROb cells [2] = assay: Preliminary in vitro TNF-α induction, PROb cells; format: cell-based, rat; details: PROb cells treated with Ad.TNF (100 MOI), 24 hrs; cisplatin 250 μM, doxorubicin 3 μM, 5-FU 20 mM, paclitaxel 14 μM
# Method: as §1
# PC-3 xenografts [3] = format: in vivo, nude mice; details: IT vector 5×10^9 p.u. + IP agent vs vector and NS, cisplatin 9, cyclophosphamide 160, doxorubicin 15, 5-FU 100 mg/kg
# Method: (§2) In vivo measurement of TNF-α protein. PC-3 (1×10^7 cells) or PROb cells (5×10^6) in 100 μl PBS were injected subcutaneously into the right hind limb of nude mice. Tumor-bearing mice received IT Ad.Egr.TNF (5×10^9 p.u. in 10 μl) with 250 μl of complete media with NS or a chemotherapeutic agent, including cisplatin (9 mg/kg), cyclophosphamide (160 mg/kg), doxorubicin (15 mg/kg), 5-fluorouracil (100 mg/kg) and gemcitabine (500 mg/kg). Each mouse IP injections were administered 20 hrs after transfection, and two consecutive IT and IP injections were given. Animals were euthanized, and xenografts were harvested 48 hrs after the second IP injection. Xenografts were snap-frozen in liquid nitrogen and homogenized in RIPA buffer (150 mM NaCl, 10 mM Tris at pH 7.5, 5 mM EDTA at pH 7.5, 100 mM PMSF, 1 μg/ml leupeptin and 2 μg/ml aprotinin). After three freeze-thaw lysis cycles, the homogenate was centrifuged for 10 minutes at 4° C. TNF-α levels in the supernatants were measured as described above.
# PROb xenografts [4] = format: in vivo, nude mice; details: IT vector 5×10^9 p.u. + IP agent vs vector plus NS, cisplatin 9, cyclophosphamide 160, doxorubicin 15, 5-FU 100, gemcitabine 500 mg/kg
# Method: as §2
# PC-3 cells [5] = assay: Chemo-sensitivity by MTS assay, PC-3 cells; format: cell-based, human; details: PC-3, Ad.Egr-TNF.11D and chemotherapy 24 hrs
# Method: (§3) Chemo-sensitivity of PC-3 and PROb cells as determined by MTS assay. PC-3 and PROb cells were plated at a density of 10^5 cells/100 μl medium in 96-well tissue culture plates and incubated overnight. […] After incubation, 200 μl of complete media, with or without chemotherapeutic agents, was added. Chemotherapeutic agents used were at final concentrations of cisplatin at 46 and 460 μM, doxorubicin at 3 and 300 μM, 5-fluorouracil at 2 and 200 mM and paclitaxel at 1.4 and 140 μM. Media was removed 24 hrs later and each well was rinsed with 200 μl of complete media (CM) and aspirated. 100 μl of CM was then added with 20 μl of CellTiter 96® Aqueous One Solution Cell Proliferation Assay solution (Promega, Madison, Wis.), and the cells were allowed to incubate for 1 hr. Absorbance was measured at 490-650 nm.
# PROb cells [6] = assay: Chemo-sensitivity by MTS assay, PROb cells; format: cell-based, rat; details: Ad.Egr-TNF.11D and chemotherapy 24 hrs
# Method: as §3
# PC-3 cells [7] = assay: Chemo-inducibility of Ad.Egr-TNF.11D in vitro, PC-3 cells
# Method: (§4) PC-3 and PROb cells were plated, infected with Ad.Egr.TNF, and incubated as discussed above. After incubation, 200 μl of CM, with or without chemotherapeutic agents, including cisplatin (250 μM), doxorubicin (3 μM), 5-fluorouracil (100 mM), gemcitabine (3 mM) and paclitaxel (14 μM) were added. Conditioned medium was harvested 24 hrs. later, and TNF-α concentration was measured (Quantikine Human TNF-α ELISA kit, R & D Systems, Minneapolis, Minn.).
# PROb cells [8] = assay: Chemo-inducibility of Ad.Egr-TNF.11D in vitro, PROb cells; format: cell-based, rat
# Method: as §4
# PC-3 xenografts [9] = format: in vivo, athymic nude mice; details: vector + IP agent days 1 and 2, cisplatin 9, cyclophosphamide 160, doxorubicin 15, 5-FU 100, gemcitabine 500 mg/kg
# Method: (§5) Saline or chemotherapeutic agents administered IP on days 1 and 2, including 9 mg/kg cisplatin, 160 mg/kg cyclophosphamide, 15 mg/kg doxorubicin, 100 mg/kg 5-FU and 500 mg/kg gemcitabine. Animals were euthanized, and xenografts were harvested 24 hrs after the second IP injection. Xenografts were snap-frozen in liquid nitrogen and homogenized in RIPA buffer (150 mM NaCl, 10 mM Tris pH 7.5, 5 mM EDTA pH 7.5, 100 mM PMSF, 1 µg/ml leupeptin and 2 μg/ml aprotinin) using a Brinkman Polytron homogenizer (Kinematica AG, Lucerne, Switzerland). After three freeze-thaw lysis cycles, the homogenate was centrifuged at 7800×g in a Sorvall RC-5C SS34 rotor (Kendro Laboratory Products, Newtown, Conn.) for 10 min at 4° C. TNF-α levels in the supernatants were measured by ELISA as described above.
# PROb xenografts [10] = details: for induction of TNF-α protein: PROb xenografts, vector + IP agent vs vector alone, cisplatin 9, cyclophosphamide 160, doxorubicin 15, 5-FU 100, gemcitabine 500 mg/kg
# Method: as §5
# Egr-1 promoter [11] = assay: In vitro luciferase reporter assay, Seg-1 cells; format: cell-based, human
# Method: (§6) In vitro luciferase reporter assay. […] JM109 competent cells (Stratagene, La Jolla, Calif.) were transformed with these plasmids, endotoxin-free maxipreps (Qiagen, Valencia, Calif.) were prepared, and product confirmation was performed by PCR, sequencing, enzyme restriction, and gel electrophoresis.
# (§7) All groups were co-transfected with the Renilla luciferase reporter plasmid construct pRL-TK (HSV thymidine kinase promoter) to normalize for transfection efficiency. […] Cells were harvested 6 hrs later, and luciferase activity was measured using the Dual-Luciferase reporter assay system (Promega).
# Egr-1 promoter [12] = assay: In vitro luciferase reporter assay, PROb cells; format: cell-based, rat
# Method: as §6, §7
# Seg-1 xenografts = assay: In vivo regrowth study, Seg-1 xenografts; design: species or system athymic nude mice; details: IT vector 2×10^8 p.u., IP cisplatin 3 mg/kg, 4 daily injections, cisplatin line = with null vector
# Method: (§8) In vivo regrowth studies. Seg-1 or PROb cells (5×10^6/0.1 ml) were injected in the right hind limb of nude mice. […] IP NS or cisplatin injections were given following the IT vector injection, and 4 consecutive daily IT and IP injections were given. Xenografts were measured every 2 days using calipers and tumor volume was calculated (length×width×thickness)/2. Fractional tumor volumes (V/Vo, Vo=day 0 volume) were calculated and plotted.
# PROb xenografts [13] = assay: In vivo regrowth study, PROb xenografts; design: species or system athymic nude mice; details: IT vector 2×10^8 p.u., IP cisplatin 3 mg/kg, 4 daily injections, cisplatin line = with null vector
# Method: as §8
# PC-3 cells [14] = assay: N-acetyl cysteine effects on TNF-α production in vitro, PC-3 cells; format: cell-based, human
# Method: (§9) N-acetyl cysteine effects on TNF-α production in vitro. PC-3 and PROb cells were plated and infected with Ad.Egr-TNF.11D as described above. PC-3 and PROb cells were treated with NAC at 0 mM, 10 mM, 20 mM and 30 mM, followed immediately by the addition of 100 mM 5-FU. Conditioned medium was collected after 24 hrs of incubation at 37° C. and stored at −20° C. TNF-α levels were determined by ELISA.
# (§10) PC-3 and PROb cells were plated and infected with Ad.Egr-TNF.11D as above. Prior to the addition of chemotherapeutic agents (cisplatin, doxorubicin, 5-FU, gemcitabine and paclitaxel), 20 mM NAC in 0.1 ml complete medium was added to each well. Conditioned medium was collected after 24 hrs. of incubation at 37° C., and stored at −20° C. TNF-α levels were determined by ELISA.
# PROb cells [15] = assay: N-acetyl cysteine effects on TNF-α production in vitro, PROb cells; format: cell-based, rat
# Method: as §9, §10
# [16] = higher concentration: cisplatin 460 μM, doxorubicin 300 μM, 5-FU 200 mM, taxol 140 μM
# [17] = lower concentration: cisplatin 46 μM, doxorubicin 3 μM, 5-FU 2 mM, taxol 1.4 μM
# [18] = vector-infected PC-3 cells, 24 hrs, cisplatin 250 μM, 5-FU 100 mM, gemcitabine 3 mM, paclitaxel 14 μM
# [19] = vector-infected PROb cells, 24 hrs, cisplatin 250 μM, doxorubicin 3 μM, 5-FU 100 mM, gemcitabine 3 mM, paclitaxel 14 μM
compound,measurement,setting,value
"O=c1[nH]cc(F)c(=O)[nH]1 [5-FU, 5-fluorouracil]",increased TNF levels,PC-3 cells [1],1.8 fold
same,increased TNF levels,PROb cells [2],2.3 fold
same,induced TNF-α,PC-3 xenografts [3],4.2 fold
same,increased TNF-α levels,PROb xenografts [4],1.9 fold
same,surviving fraction,PC-3 cells [5]; [16],20%
same,surviving fraction,PC-3 cells [5]; [17],80%
same,surviving fraction,PROb cells [6]; [16],38%
same,surviving fraction,PROb cells [6]; [17],69%
same,increase in TNF-α levels,PC-3 cells [7]; [18],67.4 fold
same,increase in TNF-α levels,PROb cells [8]; [19],1.7 fold
same,increase in TNF-α levels,PC-3 xenografts [9],4.4 fold
same,induction of TNF-α protein,PROb xenografts [10],1.9 fold
N.N.[Cl][Pt][Cl] [cisplatin],LA,"Egr-1 promoter [11]; Seg-1 cells transfected with pGL3 425, 50 μM cisplatin",2.89
same,increase in LA,"Egr-1 promoter [11]; Seg-1 cells transfected with pGL3 425, 50 μM cisplatin vs untreated control",2.0 fold
same,LA,"Egr-1 promoter [12]; PROb cells transfected with pGL3 425, 50 μM cisplatin",49.40
same,increase in LA,"Egr-1 promoter [12]; PROb cells transfected with pGL3 425, 50 μM cisplatin vs untreated control",3.6 fold
same,tumor regression,Seg-1 xenografts,moderate tumor regression
same,tumor regression,PROb xenografts [13],moderate tumor regression
same,increased TNF levels,PC-3 cells [1],6.5 fold
same,increased TNF levels,PROb cells [2],1.6 fold
same,induced TNF-α,PC-3 xenografts [3],3.5 fold
same,increased TNF-α levels,PROb xenografts [4],1.9 fold
same,surviving fraction,PC-3 cells [5]; [16],60%
same,surviving fraction,PC-3 cells [5]; [17],90%
same,surviving fraction,PROb cells [6]; [16],77%
same,surviving fraction,PROb cells [6]; [17],77%
same,increase in TNF-α levels,PC-3 cells [7],3.8 fold
same,increase in TNF-α levels,PROb cells [8],1.3 fold
same,increase in TNF-α levels,PC-3 xenografts [9],3.1 fold
same,induction of TNF-α protein,PROb xenografts [10],2.6 fold
Gemcitabine diphosphate,increased TNF levels,PROb cells [2],5.4 fold
same,increased TNF-α levels,PROb xenografts [4],1.8 fold
same,increase in TNF-α levels,PC-3 cells [7]; [18],2.7 fold
same,increase in TNF-α levels,PROb cells [8]; [19],3.5 fold
same,increase in TNF-α levels,PC-3 xenografts [9],3.1 fold
same,induction of TNF-α protein,PROb xenografts [10],2.5 fold
"O=P1(N(CCCl)CCCl)NCCCO1 (centres unmarked) [cyclophosphamide, Cyclophosphamide]",induced TNF-α,PC-3 xenografts [3],4.4 fold
same,increased TNF-α levels,PROb xenografts [4],2.8 fold
same,increase in TNF-α levels,PC-3 xenografts [9],4.4 fold
same,induction of TNF-α protein,PROb xenografts [10],3.0 fold
"CC(=O)N[C@@H](CS)C(=O)O [NAC, N-Acetylcysteine]",effect on concentration of TNF-α protein,"PC-3 cells [14]; Ad.Egr-TNF.11D transduced PC-3 cells treated with cisplatin, 5-FU, gemcitabine and paclitaxel, 20 mM NAC",significantly decreased the concentration of TNF-α protein
same,effect on concentration of TNF-α protein,"PC-3 cells [14]; PC-3 cells infected with Ad.Egr-TNF.11D and treated with 100 mM 5-FU, NAC 10 mM to 30 mM",decrease the concentration of TNF-α protein
same,effect on induction of TNF-α,"PROb cells [15]; PROb cells treated with cisplatin, 5-FU, gemcitabine or paclitaxel (data not shown)",significantly reduced the induction of TNF-α
same,effect on induction of TNF-α,"PROb cells [15]; PROb cells, 3 μM doxorubicin, 20 mM NAC",significantly reduced the induction of TNF-α
"CC(=O)O[C@H]1C(=O)[C@@]2(C)[C@H]([C@H](OC(=O)c3ccccc3)[C@]3(O)C[C@H](OC(=O)[C@H](O)[C@@H](NC(=O)c4ccccc4)c4ccccc4)C(C)=C1C3(C)C)[C@]1(OC(C)=O)CO[C@@H]1C[C@@H]2O [paclitaxel, Paclitaxel]",increased TNF levels,PC-3 cells [1],1.8 fold
same,increased TNF levels,PROb cells [2],3.0 fold
same,surviving fraction,PC-3 cells [5]; [16],10%
same,surviving fraction,PC-3 cells [5]; [17],80%
same,surviving fraction,PROb cells [6]; [16],8%
same,surviving fraction,PROb cells [6]; [17],85%
same,increase in TNF-α levels,PC-3 cells [7]; [18],1.7 fold
same,increase in TNF-α levels,PROb cells [8]; [19],4.5 fold
same,systemic toxicity,"PROb xenografts [10]; mouse, in vivo",severe systemic toxicity
